Assay type in all cases: cell-based
The test system of test [1] is XBP1s, MDA-MB-231 cells. Kind of test: Immunoblot of XBP1 isoforms in MDA-MB-231 cells. The following applies: for XBP1s (immunoblot) under IRE1α RNase inhibition: 4μ8C 32 μM or MKC-8866 20 μM, 48 h; for XBP1s translation (immunoblot): Tg 48 h, Tm 1 μg/ml 16 h, BFA 0.5 μg/ml 16 h, DTT 4 mM 2 h. On the procedure: (§1) Cell culture and treatments MCF10A (ATCC) cells were maintained in DMEM/F-12 (Sigma-Aldrich, St. Louis, USA) supplemented with 5% horse serum (Sigma-Aldrich, St. Louis, USA), 20 ng/mL epidermal growth factor (PeproTech, London, UK), 0.5 μg/mL Hydrocortisone (Sigma-Aldrich, St. Louis, USA), 100 ng/mL Cholera toxin (Sigma-Aldrich, St. Louis, USA), 10 μg/mL insulin (Sigma-Aldrich, St. Louis, USA), 50 U/mL^1 penicillin, and 50 μg/mL streptomycin (St. Sigma-Aldrich, St. Louis, USA). MCF7 cells (ECACC) were cultured in DMEM high glucose (Sigma-Aldrich, St. Louis, USA) supplemented with 10% FBS, 0.01 mg/mL Insulin (Sigma-Aldrich, St. Louis, USA), and 2 mM L-glutamine. MDA-MB-231 cells were cultured in DMEM high glucose (Sigma-Aldrich, St. Louis, USA) supplemented with 10% FBS, 50 U/mL^1 penicillin, 50 μg/mL streptomycin, and 2 mM L-glutamine. U937 and THP-1 (ATCC, Manassas, USA) cells were cultured in RPMI-1640 medium (Sigma-Aldrich, St. Louis, USA) supplemented with 10% foetal bovine serum (FBS) (Sigma-Aldrich, St. Louis, USA), 50 U/mL penicillin, 50 μgml^−1 streptomycin (Sigma-Aldrich, St. Louis, USA), and 2 mM L-glutamine (Sigma-Aldrich, St. Louis, USA). All cells were cultured at 37° C., 5% CO2 in a humidified incubator and adherent cells seeded at an appropriate density 24 h prior to treatment. U937 cells were seeded at 5×10^5 cells/mL and treated immediately while THP-1 cells were seeded at 1×10^6 cells/mL and treated after 2 hours.
(§2) Sample preparation Cells were washed once in ice cold phosphate buffered saline (PBS) and then lysed in either RIPA buffer (Sigma-Aldrich, St. Louis, USAUSA) with RocheSTOP protease inhibitors (Roche, Basel, Switzerland) for protein analysis or directly lysed in TriReagent (Sigma-Aldrich, St. Louis, USAUSA) as per manufactures instructions for RNA analysis.
Immunoblotting Protein lysates were mixed with 5× Laemmli Buffer (0.3125 M Tris HCl (pH 6.8), 10% SDS, 50% glycerol, 25% 2-mercaptoethanol, 0.02% bromophenol blue) in a 1:4 ratio and boiled at 95° C. for 5 min. Samples were separated on an SDS polyacrylamide gel, transferred onto nitrocellulose membrane (GE Healthcare Life Sciences, Little Chalfont, UK) and blocked with 5% milk in Wash Buffer (Randox Laboratories Ltd., Crumlin, UK). Membranes were probed with commercial antibodies to spliced and unspliced XBP1 isoforms and Actin (Sigma-Aldrich, St. Louis, USA, 1:5000). Anti-rabbit (Jackson ImmunoResearch, Cambridge, UK) and anti-mouse (Jackson ImmunoResearch, Cambridge, UK; Sigma-Aldrich, St. Louis, USA) HRP-conjugated secondary antibodies were incubated for 45-60 min and the signal was visualized using western blotting luminol reagent (Thermofisher, Waltham, USA; Perkin-Elmer, Waltham, USA).

For test [2], the system named is XBP1 splicing, THP-1 cells. Kind of test: XBP1 biochip and RT-PCR assessment of THP-1 cells after NLRP3 inflammasome activation. To be noted: for XBP1 splicing upon inflammasome activation: LPS 1 μg/ml 4 h followed by nigericin 10 μM 45 min (used together). As to the method:
(§3) Biochip-based determination of XBP1s and XBP1u. XBP1s and XBP1u levels and raw signal were quantified using the Evidence Investigator analyser (EV3602, Randox Laboratories Ltd., UK). Signals from defined discrete test regions were detected using digital imaging technology. The biochips were provided in wells in a carrier in a 3×3 format (9 reaction wells per carrier). A carrier handling tray supplied with the system accommodated 6 carriers. The total assay protocol was performed according to manufacturer's instructions. Briefly, RIPA lysed samples were diluted to 100 μL in RIPA buffer followed by dilution to 200 μL in XBP1 assay buffer and mixed well with gentle pipetting. 200 μL of XBP1 assay diluent was then applied to the surface of the biochip followed by 200 μL diluted sample or 100 μL calibrator/control per well. Following a 60-minute incubation at 37° C., 370 RPM in a thermoshaker (Randox Laboratories Ltd., Crumlin, UK) liquid contents were removed with a sharp flick and washed in a 2× quick, 4×2 min wash steps. 300 μL of HRP conjugated pan-XBP1 detector was applied to each well and another 60 min incubation at 37° C., 370 RPM in a thermoshaker was performed. Following another wash as above 250 μL of a 1:1 ratio of EV841 luminol and peroxide was applied to the surface of each biochip in a carrier and incubated away from direct light for 2 min. Carriers were then submitted to the Evidence Investigator, light emitted from each DTR detected by the CCD camera and signal quantified by the instrument software. Final values in pg/mg were obtained by dividing reported value (in pg) by total protein loaded per well, as determined by bicinchoninic acid (BCA) assay. Calibration curves, inferred values and goodness of fit were independently confirmed using R package nplr (0.1-7, Frederic Commo, https://cran.r-project.org/web/packages/nplr/index.html).
Cell culture and treatments MCF10A (ATCC) cells were maintained in DMEM/F-12 (Sigma-Aldrich, St. Louis, USA) supplemented with 5% horse serum (Sigma-Aldrich, St. Louis, USA), 20 ng/mL epidermal growth factor (PeproTech, London, UK), 0.5 μg/mL Hydrocortisone (Sigma-Aldrich, St. Louis, USA), 100 ng/mL Cholera toxin (Sigma-Aldrich, St. Louis, USA), 10 μg/mL insulin (Sigma-Aldrich, St. Louis, USA), 50 U/mL^1 penicillin, and 50 μg/mL streptomycin (St. Sigma-Aldrich, St. Louis, USA). MCF7 cells (ECACC) were cultured in DMEM high glucose (Sigma-Aldrich, St. Louis, USA) supplemented with 10% FBS, 0.01 mg/mL Insulin (Sigma-Aldrich, St. Louis, USA), and 2 mM L-glutamine. MDA-MB-231 cells were cultured in DMEM high glucose (Sigma-Aldrich, St. Louis, USA) supplemented with 10% FBS, 50 U/mL^1 penicillin, 50 μg/mL streptomycin, and 2 mM L-glutamine. […]

Test [3] concerns XBP1 splicing, MCF7 cells. The test is described as follows: XBP1 biochip quantification of XBP1s and XBP1u in MCF7 lysates. The following applies: 48 h; for XBP1s quantified by XBP1 biochip: 4μ8C 32 μM (p=0.004) or MKC-8866 20 μM (p=0.008). As to the method:
as §3, with “https://cran.r-project.org/web/packages/nplr/index.html). […]” for “https://cran.r-project.org/web/packages/nplr/index.html).”

Test [4] relates to XBP1 splicing, MDA-MB-231 cells. Kind of test: XBP1 biochip quantification of XBP1s and XBP1u in MDA-MB-231 lysates. To be noted: for XBP1s quantified by XBP1 biochip: 4μ8C 32 μM (p=0.035) or MKC-8866 20 μM (p=0.033); for Paclitaxel induced increase in XBP1s under IRE1α RNase inhibition: Paclitaxel 10 nM 48 h plus inhibitor, p<0.01; for XBP1u levels: Paclitaxel, MKC-8866 and/or 4μ8C treatment; for XBP1u protein levels during IRE1α inhibition: XBP1 biochip, p=0.71. On the procedure: as §3, §1, §2

Test [5] deals with XBP1s, MCF7 cells. The test is described as follows: Immunoblot of XBP1 isoforms in MCF7 cells. To be noted: 4μ8C 32 μM or MKC-8866 20 μM, 48 h. On the procedure:
as §1, with “U937 cells were seeded at 5×10^5 cells/mL and treated immediately while THP-1 cells were seeded at 1×10^6 cells/mL and treated after 2 hours.” left out
For orientation: In western blotting, separated proteins are transferred to a membrane and probed.

Test [6] has as its system NLRP3 mediated IL-1β release, THP-1 cells. The test is described as follows: Immunoblot of IL-1β in conditioned media of THP-1 cells. The following applies: LPS and nigericin activated.

The record followed here is US20220341943A1, “XBP1 ISOFORM MULTIPLEX ASSAY” (Randox Laboratories Ltd, priority 2019, published 2022).

Regarding `COc1cc2c(C)c(CC(=O)N3CCOCC3)c(=O)oc2c(C=O)c1O` [MKC-8866], the “XBP1s (immunoblot) under IRE1α RNase inhibition” value in test [1] is “reduction”. Further, the “XBP1s expression upon MKC-8866 mediated inhibition (XBP1 biochip)” value in test [2] (LPS and nigericin activated, p=0.048) is “significant changes”. The “XBP1u levels (XBP1 biochip)” value in test [2] (mean=46.2 μg/mg over treatments, one-way ANOVA p=0.408) was “largely unchanged”. Further, the “XBP1s quantified by XBP1 biochip” value in test [3] is given as “significant reductions”. For the same compound, in test [4] (MDA-MB-231, 48 h), the “XBP1s quantified by XBP1 biochip” value is on record as “significant reductions” and the XBP1u levels entry is recorded as “no significant change”. In test [4] (MDA-MB-231), the “Paclitaxel induced increase in XBP1s under IRE1α RNase inhibition” value is “completely ablated” and the “XBP1u protein levels during IRE1α inhibition” value is listed as “largely unchanged”. Besides, in test [5], the “XBP1s (immunoblot) under IRE1α RNase inhibition” value is listed as “reduction”. In addition, the IL-1β release entry in test [6] is recorded as “ablates”.

For the compound `CC(=O)O[C@H]1C(=O)[C@@]2(C)[C@H]([C@H](OC(=O)c3ccccc3)[C@]3(O)C[C@H](OC(=O)[C@H](O)[C@@H](NC(=O)c4ccccc4)c4ccccc4)C(C)=C1C3(C)C)[C@]1(OC(C)=O)CO[C@@H]1C[C@@H]2O` [Paclitaxel], in test [4] (MDA-MB-231, Paclitaxel 10 nM, 48 h, from 66.9±16.2 without Paclitaxel, p=0.036), the XBP1s expression amounted to 125.0 ± 14.1 µg/mg. Further, in test [4] (MDA-MB-231, 48 h), the XBP1u levels result was “no significant change”.

Take Lipopolysaccharide [LPS]: the “XBP1 splicing upon inflammasome activation” value in test [2] was “increase”.

Consider `CO[C@@H]1C[C@@H](C[C@H]2CC[C@H](C)[C@H]([C@@H](C)C(=O)O)O2)O[C@]2(O[C@](C)([C@H]3CC[C@@](C)([C@@H]4O[C@@H]([C@H]5O[C@@](O)(CO)[C@H](C)C[C@@H]5C)C[C@@H]4C)O3)C[C@H]2C)[C@@H]1C` [nigericin, Nigericin], for which, in test [2], the “XBP1 splicing upon inflammasome activation” value is on record as “increase”.

Take `C/C=C(/C)C(=O)O[C@H]1C(C)=C2[C@H]([C@@H]1OC(=O)CCCCCCC)[C@@](C)(OC(C)=O)C[C@H](OC(=O)CCC)[C@@]1(O)[C@H]2OC(=O)[C@@]1(C)O` [Thapsigargin]: the “XBP1s translation (immunoblot)” value in test [1] is “upregulation”.

Regarding `O[C@H](CS)[C@H](O)CS` (racemic) [Dithiothreitol], the “XBP1s translation (immunoblot)” value in test [1] was “upregulation”.

With `Cc1cc(=O)oc2c(C=O)c(O)ccc12` [4μ8C], the “XBP1s (immunoblot) under IRE1α RNase inhibition” value in test [1] was “reduction”. Moreover, the “XBP1s quantified by XBP1 biochip” value in test [3] is “significant reductions”. The “XBP1u protein expression level (average)” value in test [3] (4μ8C 32 μM, significant upregulation, p=0.019) was 81.1 µg/mg. In addition, the “relative potency of inhibition of XBP1s (XBP1 biochip)” value in test [4] (MCF7 and MDA-MB-231, 4μ8C 32 μM versus MKC-8866 20 μM) is “more potent than MKC”. In test [4] (MDA-MB-231, 48 h), the “XBP1s quantified by XBP1 biochip” value is reported as “significant reductions” and the XBP1u levels result is on record as “no significant change”. Moreover, in test [4] (MDA-MB-231), the “Paclitaxel induced increase in XBP1s under IRE1α RNase inhibition” value was “completely ablated” and the “XBP1u protein levels during IRE1α inhibition” value was “largely unchanged”. Besides, the “XBP1s (immunoblot) under IRE1α RNase inhibition” value in test [5] is on record as “reduction”.

As for Tunicamycin, the “XBP1s translation (immunoblot)” value in test [1] is recorded as “upregulation”.

Take `C[C@H]1CCC/C=C/[C@@H]2C[C@H](O)C[C@H]2[C@H](O)/C=C/C(=O)O1` [Brefeldin A]: the “XBP1s translation (immunoblot)” value in test [1] was “upregulation”.
